Consider two compounds from patent publication US6730666B1, “Pharmaceutical compositions comprising porphyrins and some novel porphyrin derivatives” (Yeda Research and Development Co. Ltd., priority 1998, dated 2004).

Where two headings read alike, the source gives them in different places.

In experiment [1] the test system is NIH 3T3 cells expressing signal peptide bFGF. Kind of experiment: Tumor formation induced by signal peptide bFGF expressing NIH 3T3 cells in nude mice. To be noted: free P1, 25 μg/g of body mass IP twice a week, after 4 weeks. Type of experiment: in vivo, Balb/C nude mice. Here is the method: (v) Inhibition by porphyrins of tumor formation induced by signal peptide bFGF expressing cells NIH 3T3 cells expressing signal peptide bFGF were injected subcutaneously to Balb/C nude mice as described (Yayon and Klagsbrun, 1990). Porphyrin/corrole compound at 25 μg/g of body mass was injected IP (intraperitoneally) twice a week and after 4 weeks the tumor size was measured.
After establishing the ability of P1 to inhibit FGF biological activity in vitro, the capacity of P1 to inhibit bFGF-induced tumor growth and metastasis was evaluated in vivo. First, the inhibition of tumor growth induced by signal peptide bFGF in a nude mice model was measured (Methods, section (v)). Upon addition of a signal peptide residue to bFGF, the protein is capable of transforming NIH 3T3 cells which, when injected to nude mice, grow and form a tumor Rayon & Klagsbrun, 1990). NIH 3T3 cells expressing signal peptide bFGF were injected subcutaneously to Balb/C nude mice, and P1 either free or liposome incorporated (as described by Jori and Reddi, 1993) (25 μg/g of body mass) were given twice a week by intraperitoneal injection.

Experiment [2] has as its system microvascular tubules sprouting from rat aorta sections. Put plainly: Rat aorta in vitro angiogenesis assay (collagen gel, bFGF-induced). The format is cell-based. The procedure:
(vi) Rat aorta in vitro angiogenesis assay. Rings of rat aorta sections were immobilized in a three-dimensional collagen gel, in the presence of serum free growth medium (D/MEM) (Nicosia & Ottinetti, 1990). Porphyrin or corrole compound and bFGF (2 ng/ml) were added to the growth medium twice a week when indicated. After 14 days the cultures were fixed, and the extent of microvascular endothelial tube outgrowth was measured under a light microscope (Miao et al., 1997).
The effect of P1 was further examined in a biological assay for angiogenesis in vitro. Angiogenic vascularization is a process in which bFGF is known to play a pivotal role (Folkman, 1989). To examine the inhibitory effects of the porphyrin on bFGF-promoted angiogenesis, we employed an in vitro angiogenic assay using rat aorta sections embedded in a collagen gel (Methods, section (vi)). The assay measures the extent of endothelial cell growth and microvascular tubules sprouting from the vessel tissue embedded in the gel. Basal tubule formation can be detected even when no additional factors are added.

Experiment [3] addresses T1, FGFR-1 alkaline phosphatase fusion protein (FRAP) (Mus musculus, UniProt P16092).
T1 construct: soluble FGFR-1 ectodomain alkaline phosphatase fusion protein (FRAP); made in house; host or cells: NIH 3T3 cells (conditioned medium)
T1 sequence (P16092 22-376 limits assumed): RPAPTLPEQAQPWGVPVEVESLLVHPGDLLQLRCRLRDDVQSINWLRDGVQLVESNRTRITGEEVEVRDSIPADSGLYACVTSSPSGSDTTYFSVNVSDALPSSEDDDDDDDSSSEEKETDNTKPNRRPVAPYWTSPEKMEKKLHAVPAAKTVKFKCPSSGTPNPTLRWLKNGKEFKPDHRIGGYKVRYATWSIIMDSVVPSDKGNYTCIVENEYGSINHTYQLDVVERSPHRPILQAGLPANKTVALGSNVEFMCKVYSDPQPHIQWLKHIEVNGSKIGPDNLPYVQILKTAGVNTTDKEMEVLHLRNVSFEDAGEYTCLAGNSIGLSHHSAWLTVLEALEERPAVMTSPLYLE
Kind of experiment: Binding of soluble FGFR-1 alkaline phosphatase fusion protein (FRAP) to bFGF immobilized on heparin (Screen AP assay). Here is the method: (ii) Binding of soluble FGFR-1 alkaline phosphatase fusion protein (FRAP) to immobilized bFGF. […] The end-point of the assay measured enzymatically the formation of FGF-receptor complexes quantitated by the specifically associated alkaline phosphatase (AP) catalyzed chromogenic product.
Subsequently, 200 μl of FRAP condition medium and porphyrin/corrole compound were added and incubated together for 2 h.
In order to identify inhibitors of FGF-FGFR interactions, an assay for testing FGFR-ligand binding was developed. The system is composed of bFGF bound to a heparin matrix to which soluble FGFR-1 ectodomain alkaline phosphatase fusion protein (FRAP) and the screened compounds are added (see Methods, section (ii)).

For the next experiment, the target named is FGF receptor (Mus musculus, UniProt P16092). Put plainly: In vitro inhibition of bFGF binding (assay format not stated). The note with it: inhibition of bFGF binding.
FGF receptor, sequence (P16092 22-822): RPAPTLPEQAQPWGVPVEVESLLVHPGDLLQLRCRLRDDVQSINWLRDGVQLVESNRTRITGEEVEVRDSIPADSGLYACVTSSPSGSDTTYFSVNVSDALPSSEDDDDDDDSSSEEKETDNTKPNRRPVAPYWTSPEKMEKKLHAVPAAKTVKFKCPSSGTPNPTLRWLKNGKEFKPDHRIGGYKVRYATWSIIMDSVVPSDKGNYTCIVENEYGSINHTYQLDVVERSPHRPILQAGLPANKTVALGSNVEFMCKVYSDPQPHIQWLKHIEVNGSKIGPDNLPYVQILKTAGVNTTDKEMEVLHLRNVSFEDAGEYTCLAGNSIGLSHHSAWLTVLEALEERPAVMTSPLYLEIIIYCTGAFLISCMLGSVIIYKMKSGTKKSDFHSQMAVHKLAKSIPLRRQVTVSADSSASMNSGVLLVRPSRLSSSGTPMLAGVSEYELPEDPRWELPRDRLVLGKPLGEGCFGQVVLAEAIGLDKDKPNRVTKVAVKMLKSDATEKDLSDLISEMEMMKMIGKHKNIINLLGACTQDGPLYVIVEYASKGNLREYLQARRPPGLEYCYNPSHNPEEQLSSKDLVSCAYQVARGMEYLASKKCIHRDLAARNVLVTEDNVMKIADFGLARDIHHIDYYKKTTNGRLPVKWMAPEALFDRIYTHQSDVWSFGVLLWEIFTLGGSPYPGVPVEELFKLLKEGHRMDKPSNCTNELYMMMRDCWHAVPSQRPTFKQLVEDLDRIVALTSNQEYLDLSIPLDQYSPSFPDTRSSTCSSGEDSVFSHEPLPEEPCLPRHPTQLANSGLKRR

By IC50 is commonly meant the concentration needed to halve the response being measured. Take `C[n+]1ccc(-c2c3nc(c(-c4cc[n+](C)cc4)c4ccc([nH]4)c(-c4cc[n+](C)cc4)c4nc(c(-c5cc[n+](C)cc5)c5ccc2[nH]5)C=C4)C=C3)cc1` [Compound P1, 5,10,15,20-Tetrakis(N-methyl-4-pyridylium)-21H,23H-porphine tetra-p-tosylate]: in experiment [1], the “Inhibition of tumor formation in nude mice, in words” value is on record as “clear inhibition of tumor formation”. Moreover, the “Effect on bFGF-induced endothelial cell growth” value in experiment [2] (10 μM, with 2 ng/ml bFGF) is on record as “dramatically reduced the extent of endothelial cell growth”. Further, in experiment [2] (100 μl P1, with 2 ng/ml bFGF), the “Effect on microvascular tubules” value is on record as “complete inhibition of microvascular tubules”. Also, the IC50 in experiment [3] (FIG. 1A, read-out: IC50, inhibition of FRAP binding to bFGF immobilized on heparin matrix (converted)) is 0.133 µM; in experiment [3] (IC50, inhibition of binding of soluble FGFR-1 to bFGF immobilized on heparin, text of detailed description), 90 µM; in experiment [3] (binding of FGF to FGFR, Methods section (ii), read-out: Screen AP assay (IC50)), 0.075 µM.

For the compound `C[n+]1ccc(-c2c3nc(c(-c4cc[n+](C)cc4)c4ccc([nH]4)c(-c4c(F)c(F)c(F)c(F)c4F)c4nc(c(-c5cc[n+](C)cc5)c5ccc2[nH]5)C=C4)C=C3)cc1.[I-].[I-].[I-]` [Compound P16, 5-Pentafluorophenyl-10,15,20-tris(N-methyl-4-pyridylium)-21H,23H-porphine triiodide], the “Activity in vitro relative to P1 (fold)” value at FGF receptor is “about 50 fold”.
